From patent US20250074892A1, “CARBONYL BRIDGED HETEROCYCLIC COMPOUND, AND COMPOSITION AND APPLICATION THEREOF” (BEIJING SCITECH-MQ PHARMACEUTICALS LIMITED, priority 2022, published 2025)
pIC50: −log10 of the molar value.

Columns and labels:
HT29 cells = test: Inhibition of cell necrosis (CCK8 method), HT29 cells; format: cell-based, human; conditions: for pIC50: HT29, Human TNF-α/AT-406/Z-VAD-FMK, 16 hours, CCK8
Method: (§1) In this assay example 2, under the condition of inducing programmed cell necrosis of HT29 and L929 cell lines, different concentrations of the test compounds were added to test the IC50 of the rescue effect of the test compounds on the programmed necrosis.
(§2) • Compounds: dissolved in DMSO to make a 10 mM solution; • TNF-α: initial concentration of 100 µg/mL; • Z-VAD-FMK: dissolved in DMSO to make a 10 mM solution; • AT-406: dissolved in DMSO to make a 10 mM solution. • Cell lines: HT29 cells were cultured in McCoy's 5A medium containing 10% fetal bovine serum, 100 U/mL penicillin, and 100 µg/mL streptomycin, and L929 cells were cultured in MEM medium containing 10% horse serum, 100 U/mL penicillin, and 100 µg/mL streptomycin.
(§3) 1. The test compound was dissolved in DMSO to form a stock solution, and a gradient dilution was performed; the solution was then diluted with the corresponding culture medium to obtain a solution with 10 times the working concentration.
(§4) 2. The cells in the logarithmic growth phase were diluted with culture medium to a specific cell concentration. 80 µL of the cell suspension was added to a 96-well plate, so that the cell densities of HT29 and L929 were 1.2*10^4 cells/well and 2.0*10^4 cells/well, respectively. The plate was cultured in a 37° C., 5% carbon dioxide incubator overnight.
(§5) 3. […] of the compound solution was added to each well of the 96-well plate inoculated with cells. The compounds to be tested were serially diluted 4-fold to obtain 9 concentrations in duplicate, starting from a maximum concentration of 10 μM. At the same time, a control group without compound addition was set up.
(§6) 4. After the cells were cultured for another 30 minutes, 10 μL of the inducer mixture was added to each well. The final concentrations of Human TNF-α, AT-406 and Z-VAD-FMK in HT29 cells were 20 ng/mL, […] and 20 μM, respectively; and the final concentrations of Murine TNF-α and Z-VAD-FMK in L929 cells were 20 ng/mL and 25 μM, respectively.
(§7) 5. The 96-well plate in which compounds and inducer were added was placed in a 37° C., 5% carbon dioxide incubator for further culture, wherein HT29 cells were cultured for 16 hours and L929 cells were cultured for 4-8 hours. Cell viability was detected by CCK8. GraphPad Prism software was used to prepare a dose-effect curve and IC50 was calculated.

L929 cells = test: Inhibition of cell necrosis (CCK8 method), L929 cells; format: cell-based, mouse; conditions: for pIC50: 4-8 hours, CCK8
Method: as §1, §2, §3, §4, §5, §6, §7

[1] = Mus musculus, L929, L929, Murine TNF-α/Z-VAD-FMK

Row | Structure (SMILES) | pIC50 (HT29 cells; Homo sapiens, HT-29, 16 h) | pIC50 (L929 cells; [1]) | inhibitory activity against human HT29 cells (HT29 cells; HT29 necrosis) | inhibitory activity against mouse L929 cells (L929 cells; L929 necrosis) | pIC50 (HT29 cells) | pIC50 (L929 cells; L929, Murine TNF-α/Z-VAD-FMK)
1 | O=C(C1CCN(c2cc(-c3cccc(OC4CCOCC4)c3)ccn2)CC1)N1N=CCC1c1cc(F)cc(F)c1 (stereo not shown) [Example 3, (5-(3,5-difluorophenyl)-4,5-dihydro-1H-pyrazol-1-yl)(1-(4-(3-((tetrahydro-2H-pyran-4-yl)oxy)phenyl)pyridin-2-yl)piperidin-4-yl)methanone] | 7.30 to 8.00 | 7.00 to 7.30 | – | – | – | –
2 | O=C(C1CCN(c2cc(-c3cc(OCCCF)ccc3F)ccn2)CC1)N1N=CCC1c1cc(F)cc(F)c1 (stereo not shown) [Example 27, (5-(3,5-difluorophenyl)-4,5-dihydro-1H-pyrazol-1-yl)(1-(4-(2-fluoro-5-(3-fluoropropoxy)phenyl)pyridin-2-yl)piperidin-4-yl)methanone] | ≥ 8.00 | 7.00 to 7.30 | – | – | – | –
3 | Cc1ccc(OCCCC(C)(C)O)cc1-c1ccnc(N2CCC(C(=O)N3N=CCC3c3cc(F)cc(F)c3)CC2)c1 (stereo not shown) [Example 10, (5-(3,5-difluorophenyl)-4,5-dihydro-1H-pyrazol-1-yl)(1-(4-(5-((4-hydroxy-4-methylpentyl)oxy)-2-methylphenyl)pyridin-2-yl)piperidin-4-yl)methanone] | ≥ 8.00 | ≥ 8.00 | – | – | – | –
4 | CC(C)(O)CCCCOc1ccc(F)c(-c2ccnc(N3CCC(C(=O)N4N=CCC4c4cc(F)cc(F)c4)CC3)c2)c1 (stereo not shown) [Example 26, (5-(3,5-difluorophenyl)-4,5-dihydro-1H-pyrazol-1-yl)(1-(4-(2-fluoro-5-((5-hydroxy-5-methylhexyl)oxy)phenyl)pyridin-2-yl)piperidin-4-yl)methanone] | ≥ 8.00 | 7.30 to 8.00 | – | – | – | –
5 | O=C(C1CCN(c2cc(-c3cc(OCCCCO)ccc3F)ccn2)CC1)N1N=CCC1c1cc(F)cc(F)c1 (stereo not shown) [Example 36, (5-(3,5-difluorophenyl)-4,5-dihydro-1H-pyrazol-1-yl)(1-(4-(2-fluoro-5-(4-hydroxybutoxy)phenyl)pyridin-2-yl)piperidin-4-yl)methanone] | ≥ 8.00 | 7.00 to 7.30 | – | – | – | –
6 | CC(C)(O)CCCOc1ccc(F)c(-c2ccnc(N3CCC(C(=O)N4N=CC[C@H]4c4cc(F)cc(F)c4)CC3)c2)c1 (racemic) [Example 43] | ≥ 8.00 | 7.30 to 8.00 | – | – | – | –
7 | O=C(C1CCN(c2cc(-c3cc(OCCCO)ccc3Cl)ccn2)CC1)N1N=CCC1c1cc(F)cc(F)c1 (stereo not shown) [Example 17, (1-(4-(2-chloro-5-(3-hydroxypropoxy)phenyl)pyridin-2-yl)piperidin-4-yl)(5-(3,5-difluorophenyl)-4,5-dihydro-1H-pyrazol-1-yl)methanone] | 7.30 to 8.00 | 7.00 to 7.30 | – | – | – | –
8 | CC(C)(O)CCOc1ccc(F)c(-c2ccnc(N3CCC(C(=O)N4N=CCC4c4cc(F)cc(F)c4)CC3)n2)c1 (stereo not shown) [Example 39, (5-(3,5-difluorophenyl)-4,5-dihydro-1H-pyrazol-1-yl)(1-(4-(2-fluoro-5-(3-hydroxy-3-methylbutoxy)phenyl)pyrimidin-2-yl)piperidin-4-yl)methanone] | ≥ 8.00 | 7.00 to 7.30 | – | – | – | –
9 | CC(C)(O)CCCOc1cccc(-c2ccnc(N3CCC(C(=O)N4N=CCC4c4cc(F)cc(F)c4)CC3)c2)c1 (stereo not shown) [Example 8, (5-(3,5-difluorophenyl)-4,5-dihydro-1H-pyrazol-1-yl)(1-(4-(3-((4-hydroxy-4-methylpentyl)oxy)phenyl)pyridin-2-yl)piperidin-4-yl)methanone] | 7.30 to 8.00 | 7.30 to 8.00 | – | – | – | –
10 | CCC(O)(CC)COc1ccc(F)c(-c2ccnc(N3CCC(C(=O)N4N=CCC4c4cc(F)cc(F)c4)CC3)c2)c1 (stereo not shown) [Example 44, [5-(3,5-difluorophenyl)-4,5-dihydro-1H-pyrazol-1-yl]-[1-[4-[5-(2-ethyl-2-hydroxybutoxy)-2-fluorophenyl]pyridin-2-yl]piperidin-4-yl]methanone] | ≥ 8.00 | 7.30 to 8.00 | – | – | – | –
11 | CC(C)(O)CCOc1ccc(F)c(-c2ccnc(N3CCC(C(=O)N4N=CCC4c4cc(F)cc(F)c4)CC3)c2)c1 (racemic) [Example 21, (5-(3,5-difluorophenyl)-4,5-dihydro-1H-pyrazol-1-yl)(1-(4-(2-fluoro-5-(3-hydroxy-3-methylbutoxy)phenyl)pyridin-2-yl)piperidin-4-yl)methanone] | ≥ 8.00 | 7.30 to 8.00 | – | – | – | –
12 | NC(=O)c1ccc(N2CCC(C(=O)N3N=CCC3c3ccccc3)CC2)nc1 (stereo not shown) [compound 1, reference compound] | 5.40 to 6.40 | < 5.40 | significantly inferior to those of the compounds of the present application | almost no inhibitory activities | – | –
13 | COCCCCOc1ccc(C)c(-c2ccnc(N3CCC(C(=O)N4N=CCC4c4cc(F)cc(F)c4)CC3)c2)c1 (stereo not shown) [Example 34, (5-(3,5-difluorophenyl)-4,5-dihydro-1H-pyrazol-1-yl)(1-(4-(5-(4-methoxybutoxy)-2-methylphenyl)pyridin-2-yl)piperidin-4-yl)methanone] | – | – | – | – | 7.30 to 8.00 | 7.00 to 7.30
